From the supplement of paper PMC10307832

What was measured:
Assay in all cases: relative viability (nuclei count vs DMSO), 5 days (fraction); higher = more cells survive
[1] = compound: CCn1c(-c2nonc2N)nc2cnc(Oc3cccc(NC(=O)c4ccc(OCCN5CCOCC5)cc4)c3)cc21 + CS(=O)(=O)CCNCc1ccc(-c2ccc3ncnc(Nc4ccc(OCc5cccc(F)c5)c(Cl)c4)c3c2)o1 [Lapatinib] (partner 2 µM)
Procedure, shortened: (§1)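 Cells from lung cancer lines were seeded into 1536-well plates and, one day later, dosed by pin tool. Treatments were either a single drug or a fixed dose of an anchor drug with five library-drug doses (not always all listed) in √10 steps. After 5 days, nuclei were stained in a one-step fixation (final 0.05% Triton X-100, 1% formaldehyde, 1 ug/ml Hoechst) and counted on 4× images, and relative viability is the treated-to-vehicle nuclei ratio, as the median of duplicate plates.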

[2] = compound: N=C1NC(=O)/C(=C/c2ccc(O)cc2)S1 [Mirin] + Cc1nc(Nc2ncc(C(=O)Nc3c(C)cccc3Cl)s2)cc(N2CCN(CCO)CC2)n1 [Dasatinib] (partner 0.075 µM)
Procedure, shortened: as §1

[3] = compound: CCn1c(-c2nonc2N)nc2cnc(Oc3cccc(NC(=O)c4ccc(OCCN5CCOCC5)cc4)c3)cc21 + C[C@@H](Oc1cc(-c2cnn(C3CCNCC3)c2)cnc1N)c1c(Cl)ccc(F)c1Cl [Crizotinib] (partner 1 µM)
Procedure, shortened: as §1

Cell Line | relative viability ([1]; first compound 0.04 µM) | relative viability ([1]; first compound 0.1265 µM) | relative viability ([1]; first compound 0.4 µM) | relative viability ([1]; first compound 1.265 µM) | relative viability ([1]; first compound 4 µM) | relative viability ([2]; first compound 0.25 µM) | relative viability ([2]; first compound 0.7906 µM) | relative viability ([2]; first compound 2.5 µM) | relative viability ([2]; first compound 7.906 µM) | relative viability ([2]; first compound 25 µM) | relative viability ([3]; first compound 0.04 µM) | relative viability ([3]; first compound 0.1265 µM) | relative viability ([3]; first compound 0.4 µM) | relative viability ([3]; first compound 1.265 µM) | relative viability ([3]; first compound 4 µM)
NCI-H1651 | 0.998 | 0.819 | 0.639 | 0.49 | 0.421 | 0.417 | 0.382 | 0.501 | 0.355 | 0.376 | 0.871 | 0.98 | 0.822 | 0.667 | 0.907
NCI-H2087 |  | 0.693 | 0.871 | 0.499 | 0.677 | 1.06 | 0.869 | 0.752 | 0.958 | 0.677 |  | 0.591 | 0.678 | 0.522 | 0.336
RERF-LC-KJ | 0.933 | 0.827 | 0.717 | 0.684 | 0.606 | 0.958 | 0.831 | 0.843 | 0.685 | 0.688 | 0.886 | 0.822 | 0.82 | 0.535 | 0.36
LOU-NH91 | 0.817 | 0.77 | 0.537 | 0.518 | 0.517 | 0.549 | 0.564 | 0.535 | 0.477 | 0.65 | 0.756 | 0.534 | 0.637 | 0.488 | 0.497
PC-3 [JPC-3] | 0.527 | 0.499 | 0.438 | 0.573 | 0.522 | 1.03 | 0.979 | 1.04 | 0.981 | 1.08 | 0.961 | 0.96 | 1.04 | 0.967 | 0.939
NCI-H2126 | 0.764 | 0.782 | 0.541 | 0.742 | 0.825 | 0.631 | 0.58 | 0.601 | 0.517 | 0.514 | 1.05 | 1.05 | 1.04 | 1.07 | 1.02
LU99A | 1.15 | 0.845 | 0.641 | 0.862 | 0.694 | 0.574 | 0.564 | 0.509 | 0.423 | 0.531 | 0.581 | 0.64 | 0.528 | 0.636 | 0.424
BEN | 0.627 | 0.695 | 0.348 | 0.279 | 0.317 | 0.321 | 0.315 | 0.308 | 0.305 | 0.246 | 0.818 | 0.869 | 0.631 | 0.318 | 0.303
SW 1573 | 1.21 | 0.904 | 0.685 | 0.627 | 0.353 | 0.466 | 0.506 | 0.605 | 0.361 | 0.295 | 0.874 | 0.704 | 0.707 | 0.519 | 0.391
NCI-H1975 | 0.778 | 0.729 | 0.477 | 0.435 | 0.331 | 0.437 | 0.482 | 0.384 | 0.417 | 0.354 | 0.933 | 0.788 | 0.864 | 0.279 | 0.218
SK-LU-1 | 1.24 | 0.662 | 0.611 | 0.493 | 0.449 | 0.209 | 0.163 | 0.161 | 0.209 | 0.224 | 1.12 | 0.744 | 0.61 | 0.46 | 0.355
NCI-H460 | 1.93 | 0.994 | 0.656 | 0.202 | 0.299 | 0.566 | 0.487 | 0.468 | 0.457 | 0.38 | 0.962 | 0.697 | 0.597 | 0.276 | 0.0863
HCC-78 | 0.905 | 0.906 | 0.461 | 0.816 | 0.756 | 0.361 | 0.283 | 0.577 | 0.374 | 0.31 | 0.429 | 0.357 | 0.333 | 0.393 | 0.399
NCI-H1915 | 1.11 | 0.949 | 0.956 | 0.611 | 0.387 | 0.308 |  | 0.332 | 0.342 | 0.31 | 1.09 | 0.899 | 0.868 | 0.93 | 0.86
